US11285219B2, “Peptide-oligourea hybrid compounds” (UREKA SARL, priority 2019, dated 2022)
Numbered stars: 1 amine (or outer) side, 2 acyl side, 3 side chain; on linkers, the order of the positions; unused ones are H or OH. Bridge positions count the residues as written; N and C are the ends. Peptide text beside a SMILES is read from it. I, II: the chains in the order shown. X1 = C[C@@H](CNC(=O)N[C@@H](C)CNC(=O)[*:2])NC(=O)NC[C@H](C)N[*:1]; X7 = C[C@@H](CNC(=O)N[C@@H](C)CNC(=O)[*:1])NC(=O)NC[C@H](C)N[*:2]; X6 = CC(CNC(=O)NC(C)CNC(=O)[*:1])NC(=O)NCC(C)N[*:2]; X8 = CC(CNC(=O)NC(C)CNC(=O)[*:2])NC(=O)NCC(C)N[*:1]

Biological target: T1, mouse GLP-1 receptor endogenously expressed in βTC6 cells (Mus musculus, UniProt O35659)
T1 construct: host or cells: βTC6 cells
T1 sequence (O35659 22-463): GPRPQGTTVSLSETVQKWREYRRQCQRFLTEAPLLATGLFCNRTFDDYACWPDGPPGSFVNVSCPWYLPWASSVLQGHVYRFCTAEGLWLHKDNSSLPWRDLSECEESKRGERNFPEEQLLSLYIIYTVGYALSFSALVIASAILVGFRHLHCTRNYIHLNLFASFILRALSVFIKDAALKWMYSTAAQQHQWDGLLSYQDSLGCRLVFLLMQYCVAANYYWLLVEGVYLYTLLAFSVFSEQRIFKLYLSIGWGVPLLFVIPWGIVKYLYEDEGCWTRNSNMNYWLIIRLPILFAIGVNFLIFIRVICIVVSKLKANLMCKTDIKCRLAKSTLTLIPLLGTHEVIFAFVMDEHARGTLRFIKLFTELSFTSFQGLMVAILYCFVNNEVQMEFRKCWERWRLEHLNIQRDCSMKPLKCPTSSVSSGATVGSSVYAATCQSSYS
Assay: cAMP production functional assay (HTRF), agonist activity at GLP-1R
Assay type: cell-based
Conditions: cAMP production; Table 1
Procedure: The agonistic activity of these hybrids were obtained by functional assays using cells expressing the […] and by measuring the receptor-mediated cAMP produced (see supporting information).
In vitro pharmacology (EC50). […] Following incubation, the cells were lysed and the fluorescence acceptor (D2-labeled cAMP) and fluorescence donor (anti-cAMP antibody labeled with europium cryptate) were added.

| Compound | Potency (%), percentage of potency compare to GLP-1-G^2 [%] |
| --- | --- |
| CC[C@H](C)[C@H](NC(=O)[C@H](Cc1ccccc1)NC(=O)[C@H](CCC(=O)O)NC(=O)[C@H](CCCCN)NC(=O)[C@H](C)NC(=O)[C@H](C)NC(=O)[C@H](CCC(N)=O)NC(=O)CNC(=O)[C@H](CCC(=O)O)NC(=O)[C@H](CC(C)C)NC(=O)NC[C@H](C)NC(=O)NC[C@H](C)NC(=O)NC[C@H](C)NC(=O)[C@H](CC(=O)O)NC(=O)[C@H](CO)NC(=O)[C@@H](NC(=O)[C@H](Cc1ccccc1)NC(=O)[C@@H](NC(=O)CNC(=O)[C@H](CCC(=O)O)NC(=O)CNC(=O)[C@@H](N)Cc1c[nH]cn1)[C@@H](C)O)[C@@H](C)O)C(=O)N[C@@H](C)C(=O)N[C@@H](Cc1c[nH]c2ccccc12)C(=O)N[C@@H](CC(C)C)C(=O)N[C@H](C(=O)N[C@@H](CCCCN)C(=O)NCC(=O)N[C@@H](CCCNC(=N)N)C(=O)NCC(N)=O)C(C)C [Compound 3, GG2[A^UA^UA^U]^10-13] | 0.04 |
| CC[C@H](C)[C@H](NC(=O)[C@H](Cc1ccccc1)NC(=O)[C@H](CCC(=O)O)NC(=O)[C@H](CCCCN)NC(=O)[C@H](C)NC(=O)[C@H](C)NC(=O)[C@H](CCC(N)=O)NC(=O)CNC(=O)[C@H](CCC(=O)O)NC(=O)NC[C@H](C)NC(=O)NC[C@H](C)NC(=O)NC[C@H](C)NC(=O)[C@@H](NC(=O)[C@H](CC(=O)O)NC(=O)[C@H](CO)NC(=O)[C@@H](NC(=O)[C@H](Cc1ccccc1)NC(=O)[C@@H](NC(=O)CNC(=O)[C@H](CCC(=O)O)NC(=O)CNC(=O)[C@@H](N)Cc1c[nH]cn1)[C@@H](C)O)[C@@H](C)O)C(C)C)C(=O)N[C@@H](C)C(=O)N[C@@H](Cc1c[nH]c2ccccc12)C(=O)N[C@@H](CC(C)C)C(=O)N[C@H](C(=O)N[C@@H](CCCCN)C(=O)NCC(=O)N[C@@H](CCCNC(=N)N)C(=O)NCC(N)=O)C(C)C [Compound 4, GG2[A^UA^UA^U]^11-14] (I: EGQAAKEFIAWLVKGRG-NH2 / II: H-HGEGTFTSDV; linker I:N-II:C via X7) | 0.2 |
| CC[C@H](C)[C@H](NC(=O)[C@H](Cc1ccccc1)NC(=O)[C@H](CCC(=O)O)NC(=O)[C@H](CCCCN)NC(=O)[C@H](C)NC(=O)[C@H](C)NC(=O)[C@H](CCC(N)=O)NC(=O)CNC(=O)NCC(C)NC(=O)NCC(C)NC(=O)NCC(C)NC(=O)[C@H](CO)NC(=O)[C@@H](NC(=O)[C@H](CC(=O)O)NC(=O)[C@H](CO)NC(=O)[C@@H](NC(=O)[C@H](Cc1ccccc1)NC(=O)[C@@H](NC(=O)CNC(=O)[C@H](CCC(=O)O)NC(=O)CNC(=O)[C@@H](N)Cc1c[nH]cn1)[C@@H](C)O)[C@@H](C)O)C(C)C)C(=O)N[C@@H](C)C(=O)N[C@@H](Cc1c[nH]c2ccccc12)C(=O)N[C@@H](CC(C)C)C(=O)N[C@H](C(=O)N[C@@H](CCCCN)C(=O)NCC(=O)N[C@@H](CCCNC(=N)N)C(=O)NCC(N)=O)C(C)C (stereo partly drawn) [Compound 6, GG2[A^UA^UA^U]^12-15] (I: GQAAKEFIAWLVKGRG-NH2 / II: H-HGEGTFTSDVS; linker I:N-II:C via X6) | <0.01 |
| CC[C@H](C)[C@H](NC(=O)[C@H](Cc1ccccc1)NC(=O)[C@H](CCC(=O)O)NC(=O)[C@H](CCCCN)NC(=O)[C@H](C)NC(=O)[C@H](C)NC(=O)[C@H](CCC(N)=O)NC(=O)NCC(C)NC(=O)NCC(C)NC(=O)NCC(C)NC(=O)[C@H](CO)NC(=O)[C@H](CO)NC(=O)[C@@H](NC(=O)[C@H](CC(=O)O)NC(=O)[C@H](CO)NC(=O)[C@@H](NC(=O)[C@H](Cc1ccccc1)NC(=O)[C@@H](NC(=O)CNC(=O)[C@H](CCC(=O)O)NC(=O)CNC(=O)[C@@H](N)Cc1c[nH]cn1)[C@@H](C)O)[C@@H](C)O)C(C)C)C(=O)N[C@@H](C)C(=O)N[C@@H](Cc1c[nH]c2ccccc12)C(=O)N[C@@H](CC(C)C)C(=O)N[C@H](C(=O)N[C@@H](CCCCN)C(=O)NCC(=O)N[C@@H](CCCNC(=N)N)C(=O)NCC(N)=O)C(C)C (stereo partly drawn) [Compound 7, GG2[A^UA^UA^U]^13-16] (I: QAAKEFIAWLVKGRG-NH2 / II: H-HGEGTFTSDVSS; linker I:N-II:C via X6) | <0.01 |
| CC[C@H](C)[C@H](NC(=O)[C@H](Cc1ccccc1)NC(=O)[C@H](CCC(=O)O)NC(=O)[C@H](CCCCN)NC(=O)[C@H](C)NC(=O)NC[C@H](C)NC(=O)NC[C@H](C)NC(=O)NC[C@H](C)NC(=O)[C@H](CC(C)C)NC(=O)[C@H](Cc1ccc(O)cc1)NC(=O)[C@H](CO)NC(=O)[C@H](CO)NC(=O)[C@@H](NC(=O)[C@H](CC(=O)O)NC(=O)[C@H](CO)NC(=O)[C@@H](NC(=O)[C@H](Cc1ccccc1)NC(=O)[C@@H](NC(=O)CNC(=O)[C@H](CCC(=O)O)NC(=O)CNC(=O)[C@@H](N)Cc1c[nH]cn1)[C@@H](C)O)[C@@H](C)O)C(C)C)C(=O)N[C@@H](C)C(=O)N[C@@H](Cc1c[nH]c2ccccc12)C(=O)N[C@@H](CC(C)C)C(=O)N[C@H](C(=O)N[C@@H](CCCCN)C(=O)NCC(=O)N[C@@H](CCCNC(=N)N)C(=O)NCC(N)=O)C(C)C [Compound 10, GG2[A^UA^UA^U]^15-18] (I: H-HGEGTFTSDVSSYL / II: AKEFIAWLVKGRG-NH2; linker I:C-II:N via X1) | 0.2 |
| CC[C@H](C)[C@H](NC(=O)[C@H](Cc1ccccc1)NC(=O)[C@H](CCC(=O)O)NC(=O)[C@H](CCCCN)NC(=O)NC[C@H](C)NC(=O)NC[C@H](C)NC(=O)NC[C@H](C)NC(=O)[C@H](CCC(=O)O)NC(=O)[C@H](CC(C)C)NC(=O)[C@H](Cc1ccc(O)cc1)NC(=O)[C@H](CO)NC(=O)[C@H](CO)NC(=O)[C@@H](NC(=O)[C@H](CC(=O)O)NC(=O)[C@H](CO)NC(=O)[C@@H](NC(=O)[C@H](Cc1ccccc1)NC(=O)[C@@H](NC(=O)CNC(=O)[C@H](CCC(=O)O)NC(=O)CNC(=O)[C@@H](N)Cc1c[nH]cn1)[C@@H](C)O)[C@@H](C)O)C(C)C)C(=O)N[C@@H](C)C(=O)N[C@@H](Cc1c[nH]c2ccccc12)C(=O)N[C@@H](CC(C)C)C(=O)N[C@H](C(=O)N[C@@H](CCCCN)C(=O)NCC(=O)N[C@@H](CCCNC(=N)N)C(=O)NCC(N)=O)C(C)C [Compound 12, GG2[A^UA^UA^U]^16-19] | 0.1 |
| CC[C@H](C)[C@H](NC(=O)[C@H](Cc1ccccc1)NC(=O)[C@H](CCC(=O)O)NC(=O)NC[C@H](C)NC(=O)NC[C@H](C)NC(=O)NC[C@H](C)NC(=O)CNC(=O)[C@H](CCC(=O)O)NC(=O)[C@H](CC(C)C)NC(=O)[C@H](Cc1ccc(O)cc1)NC(=O)[C@H](CO)NC(=O)[C@H](CO)NC(=O)[C@@H](NC(=O)[C@H](CC(=O)O)NC(=O)[C@H](CO)NC(=O)[C@@H](NC(=O)[C@H](Cc1ccccc1)NC(=O)[C@@H](NC(=O)CNC(=O)[C@H](CCC(=O)O)NC(=O)CNC(=O)[C@@H](N)Cc1c[nH]cn1)[C@@H](C)O)[C@@H](C)O)C(C)C)C(=O)N[C@@H](C)C(=O)N[C@@H](Cc1c[nH]c2ccccc12)C(=O)N[C@@H](CC(C)C)C(=O)N[C@H](C(=O)N[C@@H](CCCCN)C(=O)NCC(=O)N[C@@H](CCCNC(=N)N)C(=O)NCC(N)=O)C(C)C [Compound 13, GG2[A^UA^UA^U]^17-20] | 0.01 |
| CC[C@H](C)[C@H](NC(=O)NCC(C)NC(=O)NCC(C)NC(=O)NCC(C)NC(=O)[C@H](C)NC(=O)[C@H](CCC(N)=O)NC(=O)CNC(=O)[C@H](CCC(=O)O)NC(=O)[C@H](CC(C)C)NC(=O)[C@H](Cc1ccc(O)cc1)NC(=O)[C@H](CO)NC(=O)[C@H](CO)NC(=O)[C@@H](NC(=O)[C@H](CC(=O)O)NC(=O)[C@H](CO)NC(=O)[C@@H](NC(=O)[C@H](Cc1ccccc1)NC(=O)[C@@H](NC(=O)CNC(=O)[C@H](CCC(=O)O)NC(=O)CNC(=O)[C@@H](N)Cc1c[nH]cn1)[C@@H](C)O)[C@@H](C)O)C(C)C)C(=O)N[C@@H](C)C(=O)N[C@@H](Cc1c[nH]c2ccccc12)C(=O)N[C@@H](CC(C)C)C(=O)N[C@H](C(=O)N[C@@H](CCCCN)C(=O)NCC(=O)N[C@@H](CCCNC(=N)N)C(=O)NCC(N)=O)C(C)C (stereo partly drawn) [Compound 15, GG2[A^UA^UA^U]^19-22] (I: H-HGEGTFTSDVSSYLEGQA / II: IAWLVKGRG-NH2; linker I:C-II:N via X8) | <0.01 |
| CC(C)C[C@H](NC(=O)[C@H](Cc1ccc(O)cc1)NC(=O)[C@H](CO)NC(=O)[C@H](CO)NC(=O)[C@@H](NC(=O)[C@H](CC(=O)O)NC(=O)[C@H](CO)NC(=O)[C@@H](NC(=O)[C@H](Cc1ccccc1)NC(=O)[C@@H](NC(=O)CNC(=O)[C@H](CCC(=O)O)NC(=O)CNC(=O)[C@@H](N)Cc1c[nH]cn1)[C@@H](C)O)[C@@H](C)O)C(C)C)C(=O)N[C@@H](CCC(=O)O)C(=O)NCC(=O)N[C@@H](CCC(N)=O)C(=O)N[C@@H](C)C(=O)N[C@@H](C)C(=O)N[C@@H](CCCCN)C(=O)N[C@@H](CCC(=O)O)C(=O)N[C@@H](Cc1ccccc1)C(=O)N[C@@H](C)CNC(=O)N[C@@H](C)CNC(=O)N[C@@H](C)CNC(=O)N[C@H](C(=O)N[C@@H](CCCCN)C(=O)NCC(=O)N[C@@H](CCCNC(=N)N)C(=O)NCC(N)=O)C(C)C [Compound 17, GG2[A^UA^UA^U]^23-26] | 0.01 |
